Measurements: patent US20240425518A1, “N-MACROCYCLIC AMIDE COMPOUNDS, PREPARATION METHODS THEREOF AND APPLICATIONS THEREOF AS MEDICAMENTS” (Chengdu FANXI Biopharma Co., Ltd., priority 2023, published 2024)
Substitutions are numbered along the chain they refer to.

Tests used:
Assay type in all cases: biochemical
JAK3 (h) = target: T1, JAK3 (h) (Homo sapiens, UniProt P52333); experiment: Radioisotope labeling kinase assay (Eurofins), JAK3; conditions: 1 μM compound; read-out: Inhibitory activity per unit concentration/Activity % JAK3 (h)
T1 construct: purchased Eurofins
T1 sequence (P52333 1-1124): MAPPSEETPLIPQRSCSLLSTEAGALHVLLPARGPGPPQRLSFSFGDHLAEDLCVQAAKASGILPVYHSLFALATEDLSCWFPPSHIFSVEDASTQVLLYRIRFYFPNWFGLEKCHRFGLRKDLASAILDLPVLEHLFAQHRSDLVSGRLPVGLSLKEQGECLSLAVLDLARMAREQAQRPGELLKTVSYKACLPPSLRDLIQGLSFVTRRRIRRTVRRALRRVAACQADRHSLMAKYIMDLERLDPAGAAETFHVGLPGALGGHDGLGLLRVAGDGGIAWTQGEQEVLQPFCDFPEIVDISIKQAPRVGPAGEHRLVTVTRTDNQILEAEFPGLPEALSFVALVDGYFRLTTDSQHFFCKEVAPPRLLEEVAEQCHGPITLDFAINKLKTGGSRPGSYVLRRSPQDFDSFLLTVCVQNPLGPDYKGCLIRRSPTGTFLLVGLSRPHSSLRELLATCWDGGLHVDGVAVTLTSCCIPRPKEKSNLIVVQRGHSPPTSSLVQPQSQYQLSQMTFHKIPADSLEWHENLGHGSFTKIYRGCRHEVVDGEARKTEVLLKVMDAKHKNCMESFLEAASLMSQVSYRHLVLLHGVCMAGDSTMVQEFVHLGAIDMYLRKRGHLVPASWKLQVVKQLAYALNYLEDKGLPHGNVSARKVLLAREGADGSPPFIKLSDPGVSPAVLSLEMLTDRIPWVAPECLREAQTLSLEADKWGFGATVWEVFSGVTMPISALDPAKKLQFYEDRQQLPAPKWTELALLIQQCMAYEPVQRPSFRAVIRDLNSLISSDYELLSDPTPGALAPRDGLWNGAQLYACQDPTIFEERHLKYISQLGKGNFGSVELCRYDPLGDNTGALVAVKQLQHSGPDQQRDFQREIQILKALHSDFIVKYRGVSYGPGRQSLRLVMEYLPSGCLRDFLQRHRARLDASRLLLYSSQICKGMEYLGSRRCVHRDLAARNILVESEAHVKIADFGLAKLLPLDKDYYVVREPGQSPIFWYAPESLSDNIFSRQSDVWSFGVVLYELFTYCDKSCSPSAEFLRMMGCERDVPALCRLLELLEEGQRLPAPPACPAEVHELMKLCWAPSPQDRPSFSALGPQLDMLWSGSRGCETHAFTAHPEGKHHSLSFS
Description: (§1) An activity to a human recombinant protein kinase of a series of compounds was determined by a radioisotope labeling method, which was provided by Eurofins Company. A compound to be detected was mixed with a corresponding protein kinase buffer (20 mM propyl sulfonate (MOPS, […].), 1 mM EDTA, 0.10 β-mercaptoethanol, 0.010 Brij-35, […], and 1 mg/mL BSA), the mixture was added into a reaction system (100 μM reaction substrate […], 8 mM MOPS with a pH value of 7.0, 10 mM MgAcetate, 0.2 mM EDTA, and a certain concentration of γ-^33P-ATP). After adding an MgATP composite solution, the reaction was started at room temperature for 40 minutes, and the reaction was terminated by adding 5 μl of […] solution. Then, 10 μl of reaction solution was dropwise added onto a filter and washed with 75 mM phosphoric acid solution for three times, 5 minutes each time, then washed with methanol once again, and dried and subjected to scintillation counting.

Ab1 (h) = target: T2, Ab1 (h) (Homo sapiens, UniProt P00519); experiment: Radioisotope labeling kinase assay (Eurofins), Ab1; conditions: 1 μM compound; read-out: Inhibitory activity per unit concentration/Activity % Ab1 (h)
T2 construct: purchased Eurofins
T2 sequence (P00519 whole entry): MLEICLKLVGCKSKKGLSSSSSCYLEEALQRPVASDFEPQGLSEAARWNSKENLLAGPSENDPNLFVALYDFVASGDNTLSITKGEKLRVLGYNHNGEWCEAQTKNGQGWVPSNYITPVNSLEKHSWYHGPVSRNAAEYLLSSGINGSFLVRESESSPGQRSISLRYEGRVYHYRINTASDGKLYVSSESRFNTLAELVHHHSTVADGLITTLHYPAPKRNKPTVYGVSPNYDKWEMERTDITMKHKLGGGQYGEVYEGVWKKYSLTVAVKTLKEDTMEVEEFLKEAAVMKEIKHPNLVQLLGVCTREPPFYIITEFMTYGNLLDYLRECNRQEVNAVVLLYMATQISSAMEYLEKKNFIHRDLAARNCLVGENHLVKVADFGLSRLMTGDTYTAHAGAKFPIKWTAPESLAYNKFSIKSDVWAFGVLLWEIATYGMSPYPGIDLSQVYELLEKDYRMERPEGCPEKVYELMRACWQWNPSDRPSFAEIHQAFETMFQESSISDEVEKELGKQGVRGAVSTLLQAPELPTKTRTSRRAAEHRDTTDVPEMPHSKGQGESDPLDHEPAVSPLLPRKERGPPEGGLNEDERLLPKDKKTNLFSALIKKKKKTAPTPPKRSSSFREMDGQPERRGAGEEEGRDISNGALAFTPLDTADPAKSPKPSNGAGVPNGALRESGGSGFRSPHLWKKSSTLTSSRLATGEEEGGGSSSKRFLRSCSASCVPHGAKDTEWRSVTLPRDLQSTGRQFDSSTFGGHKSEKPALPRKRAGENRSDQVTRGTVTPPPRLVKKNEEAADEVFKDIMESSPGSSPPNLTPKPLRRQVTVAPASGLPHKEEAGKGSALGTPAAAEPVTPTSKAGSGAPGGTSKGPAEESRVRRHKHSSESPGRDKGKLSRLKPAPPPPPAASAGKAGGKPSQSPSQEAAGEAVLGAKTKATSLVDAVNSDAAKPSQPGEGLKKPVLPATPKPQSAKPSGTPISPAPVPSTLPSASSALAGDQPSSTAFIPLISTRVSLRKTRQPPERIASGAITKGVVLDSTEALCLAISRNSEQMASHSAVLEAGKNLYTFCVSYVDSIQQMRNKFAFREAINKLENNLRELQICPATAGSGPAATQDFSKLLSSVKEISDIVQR
Description: as §1

Flt3 (h) = target: T3, Flt3 (h) (Homo sapiens, UniProt P36888); experiment: Radioisotope labeling kinase assay (Eurofins), Flt3; conditions: 1 μM compound; read-out: Inhibitory activity per unit concentration/Activity % Flt3 (h)
T3 construct: purchased Eurofins
T3 sequence (P36888 27-993): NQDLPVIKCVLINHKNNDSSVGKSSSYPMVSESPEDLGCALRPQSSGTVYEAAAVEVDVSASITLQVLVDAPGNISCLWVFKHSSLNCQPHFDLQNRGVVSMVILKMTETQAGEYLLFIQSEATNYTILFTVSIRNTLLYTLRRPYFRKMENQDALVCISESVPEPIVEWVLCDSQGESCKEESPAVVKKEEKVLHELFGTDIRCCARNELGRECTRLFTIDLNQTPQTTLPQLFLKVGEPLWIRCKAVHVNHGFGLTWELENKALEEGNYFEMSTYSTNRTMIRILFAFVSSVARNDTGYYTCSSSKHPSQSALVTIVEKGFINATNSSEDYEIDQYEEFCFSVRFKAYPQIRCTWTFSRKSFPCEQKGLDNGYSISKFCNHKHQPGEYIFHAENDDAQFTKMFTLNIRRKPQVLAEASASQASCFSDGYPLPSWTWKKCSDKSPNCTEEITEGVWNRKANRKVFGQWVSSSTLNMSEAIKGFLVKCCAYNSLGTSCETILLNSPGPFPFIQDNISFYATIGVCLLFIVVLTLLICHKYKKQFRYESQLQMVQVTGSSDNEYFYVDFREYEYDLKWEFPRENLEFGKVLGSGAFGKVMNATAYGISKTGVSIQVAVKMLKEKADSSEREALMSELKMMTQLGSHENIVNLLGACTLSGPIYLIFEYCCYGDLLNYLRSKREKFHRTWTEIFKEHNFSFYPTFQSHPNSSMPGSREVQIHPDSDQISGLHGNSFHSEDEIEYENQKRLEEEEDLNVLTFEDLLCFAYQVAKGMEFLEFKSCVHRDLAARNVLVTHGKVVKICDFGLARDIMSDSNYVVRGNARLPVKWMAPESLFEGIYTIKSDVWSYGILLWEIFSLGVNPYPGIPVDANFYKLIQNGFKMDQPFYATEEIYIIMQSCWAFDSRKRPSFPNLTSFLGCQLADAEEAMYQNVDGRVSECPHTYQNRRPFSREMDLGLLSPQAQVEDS
Description: as §1

BTK (h) = target: T4, BTK (h) (Homo sapiens, UniProt Q06187); experiment: Radioisotope labeling kinase assay (Eurofins), BTK; conditions: 1 μM compound; read-out: Inhibitory activity per unit concentration/Activity % BTK (h)
T4 construct: purchased Eurofins
T4 sequence (Q06187 whole entry): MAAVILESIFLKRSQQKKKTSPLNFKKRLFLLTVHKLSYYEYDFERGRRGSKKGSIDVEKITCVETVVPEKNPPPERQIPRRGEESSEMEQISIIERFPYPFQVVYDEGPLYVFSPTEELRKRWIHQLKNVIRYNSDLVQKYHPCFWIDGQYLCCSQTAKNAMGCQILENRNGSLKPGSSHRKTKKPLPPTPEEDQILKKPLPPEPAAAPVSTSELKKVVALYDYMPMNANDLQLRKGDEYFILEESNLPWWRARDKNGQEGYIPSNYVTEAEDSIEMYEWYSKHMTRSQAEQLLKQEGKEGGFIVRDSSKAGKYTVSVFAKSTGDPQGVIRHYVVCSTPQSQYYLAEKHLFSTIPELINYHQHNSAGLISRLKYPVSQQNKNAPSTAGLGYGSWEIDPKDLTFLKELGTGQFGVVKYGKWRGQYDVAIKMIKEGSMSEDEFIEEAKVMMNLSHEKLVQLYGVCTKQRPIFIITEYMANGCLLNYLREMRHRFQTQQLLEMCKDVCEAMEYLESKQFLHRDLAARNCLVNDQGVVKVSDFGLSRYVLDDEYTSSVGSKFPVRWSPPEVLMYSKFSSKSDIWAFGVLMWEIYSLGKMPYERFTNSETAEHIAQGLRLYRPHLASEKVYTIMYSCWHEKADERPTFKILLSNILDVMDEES
Description: as §1

Flt3 (D835Y) (h) = target: T5, Flt3 (D835Y) (h) (Homo sapiens, UniProt P36888, D835Y); experiment: Radioisotope labeling kinase assay (Eurofins), Flt3 (D835Y); conditions: 1 μM compound; read-out: Inhibitory activity per unit concentration/Activity % Flt3 (D835Y) (h)
T5 construct: purchased Eurofins
T5 sequence (P36888 27-993 D835Y): T3 sequence (P36888 27-993) with D809Y
Description: as §1

Compound	activity at 1 µM (JAK3 (h)) [%]	activity at 1 µM (Ab1 (h)) [%]	activity at 1 µM (Flt3 (h)) [%]	activity at 1 µM (BTK (h)) [%]	activity at 1 µM (Flt3 (D835Y) (h)) [%]
O=C(/C=C/C(=O)N1CCCC1)Nc1cc2cc(c1)Nc1nccc(n1)-c1cccc(c1)COC/C=C/COC2 [XVI-33]	17	38	2	86	10
NC1CCN(C/C=C/C(=O)Nc2cc3cc(c2)Nc2nccc(n2)-c2cccc(c2)COC/C=C/COC3)C1 (stereo not drawn) [XVI-17]	4	-4	16	17	8
O=C(/C=C/COc1ccc2cc1Nc1nccc(n1)-c1cccc(c1)COC/C=C/COC2)N1CCCC1 [XVI-21]	95	92	82	78	44
O=C(/C=C/CNC1CCOC1)Nc1cc2cc(c1)Nc1nccc(n1)-c1cccc(c1)COC/C=C/COC2 (stereo not drawn) [XVI-15]	6	7	20	12	6
O=C(/C=C/COc1cc2cc(c1)Nc1nccc(n1)-c1cccc(c1)COC/C=C/COC2)N1CCCC1 [XVI-13]	34	39	24	49	-2
CN1C/C=C/COCc2cccc(c2)-c2ccnc(n2)Nc2cc(cc(NC(=O)/C=C/CN3CCOCC3)c2)C1 [XVI-30]	61	55	7	66	2
O=C(/C=C/C(F)(F)F)Nc1cc2cc(c1)Nc1nccc(n1)-c1cccc(c1)COC/C=C/COC2 [XVI-5]	75	57	17	88	7
O=C(/C=C/CNC1CCOC1)Nc1cc2cc(c1)Nc1nccc(n1)-c1cccc(c1)CCC/C=C/COC2 (stereo not drawn) [XVI-19]	6	2	23	17	-3

The remaining lines, values ahead:

activity at 1 µM (JAK3 (h)) [%]	activity at 1 µM (Ab1 (h)) [%]	activity at 1 µM (Flt3 (h)) [%]	activity at 1 µM (BTK (h)) [%]	activity at 1 µM (Flt3 (D835Y) (h)) [%]	Compound
88	81	82	86	50	CN1CCC(NC(=O)/C=C/COc2ccc3cc2Nc2nccc(n2)-c2cccc(c2)COC/C=C/COC3)C1 (stereo not drawn) [XVI-24]
21	17	7	45	-1	O=C(/C=C/c1cnc[nH]1)Nc1cc2cc(c1)Nc1nccc(n1)-c1cccc(c1)COC/C=C/COC2 [XVI-7]
21	46	8	47	3	O=C(/C=C/COc1cc2cc(c1)Nc1nccc(n1)-c1cccc(c1)COC/C=C/COC2)N1CCOCC1 [XVI-14]
30	50	5	82	0	CN1C/C=C/COCc2cccc(c2)-c2ccnc(n2)Nc2cc(cc(NC(=O)/C=C/c3cnc[nH]3)c2)C1 [XVI-32]
14	8	2	17	0	O=C(C#CCN1CCOCC1)Nc1cc2cc(c1)Nc1nccc(n1)-c1cccc(c1)COC/C=C/COC2 [XVII-3]
100	81	96	82	41	O=C(/C=C/COc1ccc2cc1Nc1nccc(n1)-c1cccc(c1)COC/C=C/COC2)N1CCOCC1 [XVI-22]
36	60	10	78	3	CN1C/C=C/COCc2cccc(c2)-c2ccnc(n2)Nc2cc(cc(NC(=O)/C=C/C(F)(F)F)c2)C1 [XVI-29]
